The values that follow come from US20180299431A1, “Explant Assay to Determine the Potential for Compositions to Promote or to Inhibit Neural Tube Defects” (Board of Supervisors of Louisiana State University and …, priority 2015, published 2018).

The subject of one assay is diabetic NOD pregnancies. Briefly: NOD diabetic pregnancies and folinic acid supplementation. Type of assay: in vivo, mouse. Here is the method: All animal experiments were performed with prior approval from the Pennington Biomedical Research Center IACUC, and were conducted in accordance with the “Guide for the care and use of laboratory animals” of the United States National Institutes of Health. Animals were housed with a 12-hour light/dark cycle, with access to food and water ad libitum. Mice of the Non-Obese Diabetic strain (NOD/ShiLtJ, The Jackson Laboratory, Bar Harbor, Me.; sometimes referred to as “NOD” mice), as well as male mice of strain FVB were kept on Purina™ 5001 diet (calories provided by: Protein, 28.5%; Fat, 13.5%; Carbohydrate, 58%. LabDiet, Purina Mills Inc., Gray Summit, Mo.). Females of strain FVB were kept on Purina 5015 diet (calories provided by: Protein, 19.8%; Fat, 25.3%; Carbohydrate, 54.8%). Blood glucose levels were monitored weekly in NOD mice. Once blood glucose exceeded 250 mg/dl, females were considered diabetic, and were then used for mating and production of embryos. Diabetic as well as normoglycemic NOD female mice were mated to normoglycemic NOD male mice; once NOD males became hyperglycemic, they were retired from the experiment and were no longer used. Supplementation with folinic acid (12.5 mg/kg body weight, once per week by intraperitoneal injection) was initiated at the age of 10 weeks in 56 NOD females. […]

Assay [1] relates to STZ-induced diabetic mouse pregnancies. The note with it: cited from earlier work.

For `Nc1nc(=O)c2c([nH]1)NCC(CNc1ccc(C(=O)N[C@@H](CCC(=O)O)C(=O)O)cc1)N2C=O` (mixture of isomers) [folinic acid], the “NTD incidence (in words)” value in the assay on diabetic NOD pregnancies (NOD strain, folinic acid supplementation) is given as “reduced”. For the same compound, the “incidence of neural tube defects in embryos” value in the assay with diabetic NOD pregnancies (diabetic NOD pregnancies, gestation day 10.5, 12.5 mg/kg once per week i.p., 17 NTDs in 81 embryos, unsupplemented 40.2%, Fisher's Exact Test p=0.006) was 21%. Consider `Nc1nc2ncc(CNc3ccc(C(=O)N[C@@H](CCC(=O)O)C(=O)O)cc3)nc2c(=O)[nH]1` [folic acid], for which the “effect on NTDs (in words)” value in assay [1] is listed as “beneficial effects”.
